In patent publication US10081632B2, “Substituted tetrahydropyrido[3′,2′:4,5]pyrrolo[1,2-α]pyrazine-2-carboxamides as RSK inhibitors” (Phoenix Molecular Designs, priority 2016, dated 2018):
Entries after “also recorded” stand apart in the source; their conditions may differ. Counter-ions that a name gives are not always drawn.

Experiments:
4T1 cells [1] = assay: Monolayer growth inhibition, Alamar blue assay; type: cell-based; settings: Mus musculus; 4T1 (TNBC), 5 days, single dose on day 1
Excerpt: (§1) In all instances a single dose was given on day 1 of the experiment.

HCC1143 cells [2] = assay: Monolayer growth inhibition, Alamar blue assay; type: cell-based; settings: Homo sapiens; HCC1143 (TNBC), 5 days, single dose on day 1
Excerpt: as §1

HCC1937 cells [3] = assay: Monolayer growth inhibition, Alamar blue assay; type: cell-based; settings: Homo sapiens; HCC1937 (TNBC, BRCA Mutant), 5 days, single dose on day 1
Excerpt: as §1

JIMT-1 cells [4] = assay: Monolayer growth inhibition, Alamar blue assay; type: cell-based; settings: Homo sapiens; JIMT-1 (HER2), 5 days, single dose on day 1
Excerpt: as §1

MDA-MB-231 cells [5] = assay: Monolayer growth inhibition, Alamar blue assay; type: cell-based; settings: Homo sapiens; MDA-MB-231 (TNBC), 5 days, single dose on day 1
Excerpt: as §1

MDA-MB-435 cells [6] = assay: Monolayer growth inhibition, Alamar blue assay; type: cell-based; settings: Homo sapiens; MDA-MB-435 (Melanoma), 5 days, single dose on day 1
Excerpt: as §1

MDA-MB-468 cells [7] = assay: Monolayer growth inhibition, Alamar blue assay; type: cell-based; settings: Homo sapiens; MDA-MB-468 (TNBC), 5 days, single dose on day 1
Excerpt: as §1

PC3 cells [8] = assay: Monolayer growth inhibition, Alamar blue assay; type: cell-based; settings: Homo sapiens, PC-3; PC3 (Prostate), 5 days, single dose on day 1
Excerpt: as §1

SUM149 cells [9] = assay: Monolayer growth inhibition, Alamar blue assay; type: cell-based; settings: Homo sapiens; SUM149 (TNBC, BRCA Mutant), 5 days, single dose on day 1
Excerpt: as §1

SUM149-PTXR cells [10] = assay: Monolayer growth inhibition, Alamar blue assay; type: cell-based, Human; settings: Homo sapiens; SUM149-PTXR (TNBC, BRCA Mutant), 5 days, single dose on day 1
Excerpt: as §1

T47D cells [11] = assay: Monolayer growth inhibition, Alamar blue assay; type: cell-based, Human; settings: Homo sapiens; T47D (ER/PR), 5 days, single dose on day 1
Excerpt: as §1

All cell lines [12] = assay: Monolayer growth inhibition, Alamar blue assay, range over all cell lines; type: cell-based; settings: 120 h; range of IC50 over all cell lines of the table; read-out: IC50 Values - Alamar Blue (5 Days), Range, All
Excerpt: as §1

HCC1937 cells [13] = assay: Monolayer growth inhibition, crystal violet assay; type: cell-based; settings: Homo sapiens; HCC1937 (TNBC, BRCA Mutant), 5 days, single dose on day 1
Excerpt: (§2) In all instances a single dose was given on day 1 of the experiment. […] Complete (100%) growth suppression was achievable with several of the compounds in multiple different cell lines.

JIMT-1 cells [14] = assay: Monolayer growth inhibition, crystal violet assay; type: cell-based; settings: Homo sapiens; JIMT-1 (HER2), 5 days, single dose on day 1
Excerpt: as §2

MDA-MB-468 cells [15] = assay: Monolayer growth inhibition, crystal violet assay; type: cell-based; settings: Homo sapiens; MDA-MB-468 (TNBC), 5 days, single dose on day 1
Excerpt: as §2

T47D cells [16] = assay: Monolayer growth inhibition, crystal violet assay; type: cell-based; settings: Homo sapiens; T47D (ER/PR), 5 days, single dose on day 1
Excerpt: as §2

4T1 cells [17] = assay: Monolayer growth inhibition, crystal violet assay; type: cell-based; settings: Mus musculus; 4T1 (TNBC), 5 days, single dose on day 1
Excerpt: as §1

HCC1143 cells [18] = assay: Monolayer growth inhibition, crystal violet assay; type: cell-based; settings: Homo sapiens; HCC1143 (TNBC), 5 days, single dose on day 1
Excerpt: as §1

MDA-MB-231 cells [19] = assay: Monolayer growth inhibition, crystal violet assay; type: cell-based; settings: Homo sapiens; MDA-MB-231 (TNBC), 5 days, single dose on day 1
Excerpt: as §1

MDA-MB-435 cells [20] = assay: Monolayer growth inhibition, crystal violet assay; type: cell-based; settings: Homo sapiens; MDA-MB-435 (Melanoma), 5 days, single dose on day 1
Excerpt: as §1

PC3 cells [21] = assay: Monolayer growth inhibition, crystal violet assay; type: cell-based; settings: Homo sapiens, PC-3; PC3 (Prostate), 5 days, single dose on day 1
Excerpt: as §1

SUM149 cells [22] = assay: Monolayer growth inhibition, crystal violet assay; type: cell-based; settings: Homo sapiens; SUM149 (TNBC, BRCA Mutant), 5 days, single dose on day 1
Excerpt: as §1

SUM149-PTXR cells [23] = assay: Monolayer growth inhibition, crystal violet assay; type: cell-based; settings: Homo sapiens; SUM149-PTXR (TNBC, BRCA Mutant), 5 days, single dose on day 1
Excerpt: as §1

All cell lines [24] = assay: Monolayer growth inhibition, crystal violet assay, range over all cell lines; type: cell-based; settings: 120 h; range of IC50 over all cell lines of the table; read-out: IC50 Values - Crystal Violet (5 Days), Range, All
Excerpt: as §2

MDA-MB-231 cells [25] = assay: Soft agar growth inhibition assay; type: cell-based; settings: Homo sapiens
MDA-MB-468 cells [26] = assay: Soft agar growth inhibition assay; type: cell-based, Human; settings: Homo sapiens; MDA-MB-468 (TNBC), 14-22 days
4T1 cells [27] = assay: Soft agar growth inhibition assay; type: cell-based; settings: Mus musculus
Protocol: Two agar (Alfa Aesar) solutions (0.8% w/v and 0.4% w/v) were prepared in ultrapure water. The 0.8% agar solution was mixed in equal volumes with 2× media previously prepared from powder (Life Technologies) following the manufacturer's instructions and filter sterilized. The 0.8% agar and media solution was added to 24 well plates (Mandel Scientific) at 500 μl per well. The plates were placed in a humidified incubator at 37° C. with 5% CO2. Next, the 0.4% agar solution was mixed in equal volumes with 2× media. Breast cancer cell lines were added to this solution to achieve a final concentration of 2×10^4 cells per well and […] was added to each well on top of the bottom agar and media layer. […] The plates were returned to the incubator for 10-32 days, with a re-dosing of compounds or DMSO every 7 days. After 10-32 days, colonies were counted in 3 different fields of view for each well.
Representative compounds described herein were tested in the soft agar growth inhibition assay against the 4T1 breast cancer cell line.

MDA-MB-231 cells [28] = assay: Immuno-oncology gene expression (HLA-DRA, CIITA, CD274 mRNA); type: cell-based, Human; settings: Compound 16 2 or 4 uM, Compound 18 1, 2, or 4 uM
Excerpt: A key feature of cancer is low immunogenicity. This can occur by several mechanisms that allow the cells to escape immune recognition. […] HLA-DRA is a member of MHC-II genes and CIITA is the master regulator of MHC II transcription. Thus it was surprising that CIITA, which would be expected to regulate MHC II gene expression, was not altered by RSK inhibition. […] HLA-DRA is important for immune recognition while PD-L1 is involved in immune checkpoints.

CD34+ cells = assay: Colony forming unit hematopoietic stem cell assay; type: cell-based, human; settings: for IC50: Homo sapiens, Hematopoietic stem cell, CD34+ cells from peripheral blood, read-out: CD34+ (PB) IC50; for Therapeutic Window: ratio IC50 against CD34+ cells and MDA-MB-231 cells (SA)
[29] = system: phosphorylated Y-box binding protein-1 (YB-1) at serine 102 (P-YB-1S102); assay: Immunoblotting of cell signalling, loss of P-YB-1 in MDA-MB-231 cells; settings: MDA-MB-231 cells, 0.01-1 uM, 96 hrs
Protocol: Following desired experimental conditions, breast cancer cell lines grown and treated in 6 well plates or 100 mm culture dishes (Grenier Bio-One) were placed on ice and the supernatant from each well was removed and the cells were washed in cold PBS. Following removal of PBS, cells were exposed to radioimmunoprecipitation assay (RIPA) buffer (50 mM Tris-HCl (pH 8), 150 mM NaCl, 1% NP-40, 0.5% sodium deoxycholate, 0.1% SDS; Fisher Scientific) supplemented with 1% phosphatase inhibitor (Fisher Scientific) and 1% protease inhibitor (Fisher Scientific) for 10 minutes. Samples were transferred to eppendorf tubes, vortexed and then centrifuged at 14 000 rpm for 10 minutes. Supernatants were collected as whole cell lysates.
To begin, the protein content of the lysates was measured using the Bicinchoninic Acid (BCA) Protein Assay Kit (Pierce), which included a protein standard curve generated with bovine serum albumin. Appropriate volumes of samples and loading buffer (50 mM Tris-HCl (pH 6.8), 2% SDS, 10% glycerol, 1% j-mercaptoethanol, 12.5 mM EDTA, 0.02% bromophenol blue) were mixed, ensuring that equal amounts of protein were loaded. For the majority of experiments in this study, 30 μg of protein per well was loaded. Samples were then resolved on SDS-PAGE (polyacrylamide gel electrophoresis) using various percentages of acrylamide gels (8%-12%), depending on the proteins of interest. SDS-PAGE was run in SDS running buffer (25 mM Tris, 192 mM glycine, 0.1% SDS) and then transferred to nitrocellulose membranes (Bio-Rad) in transfer buffer (48 mM Tris, 39 mM glycine, 20% (v/v) methanol) at 100 volts for 90 minutes at room temperature. Immunoblots were then blocked in 5% skim milk in tris-buffered saline with 0.1% Tween-20 (TBS-T; 50 mM Tris-HCl, pH 7.5, 150 mM NaCl, 0.1% (v/v) Tween-20 (Fisher Scientific)) for 1 to 2 hours. Immunoblots were then incubated with selected primary antibodies diluted in TBS-T with 0.1% gelatin (Bio-Rad) and 0.05% sodium azide (Alfa Aesar) overnight. Following washes with TBT-T 4 times for 8 to 10 minutes, immunoblots were incubated with appropriate secondary antibodies conjugated to horseradish peroxidise (Cell Signalling Technology) diluted in TBS-T plus 5% skim milk at a ratio of 1:5000 for 2 hours at room temperature. After an additional round of washes in TBS-T, immunoblots were exposed to combined enhanced chemiluminescence (ECL) reagents (Fisher Scientific) for 1 minute and developed using ChemiDoc MP Imaging System (Bio-Rad). For certain immunoblots, bands of proteins of interest were scanned and band intensity ratios were determined by densitometric analysis (ImageJ). […] Total YB-1 was used as a loading control (1:5000 Abcam). […] To assess whether cells are actively undergoing cell death, the activity of poly ADP ribose polymerase (PARP) (1:1000 CST) was also measured using the immunoblotting method.

[30] = Solubility assessment, 20 mg/ml solution; type: physicochemical; settings: hydrochloride salt
In short: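 Compounds from 100 mM DMSO stocks diluted to 20 mg/ml in DMEM with FBS and penicillin/streptomycin, vortexed and checked visually for precipitate. One compound instead diluted to 20 mg/ml in phosphate-buffered saline, solution pH 2.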

[31] = system: P-YB-1 in MDA-MB-231 xenografts; assay: Pharmacodynamics, P-YB-1 signalling in MDA-MB-231 xenograft tumors (immunoblotting); settings: 100 mg/kg BID PO for three days
Protocol: Following desired experimental conditions, breast cancer cell lines grown and treated in 6 well plates or 100 mm culture dishes (Grenier Bio-One) were placed on ice and the supernatant from each well was removed and the cells were washed in cold PBS. Following removal of PBS, cells were exposed to radioimmunoprecipitation assay (RIPA) buffer (50 mM Tris-HCl (pH 8), 150 mM NaCl, 1% NP-40, 0.5% sodium deoxycholate, 0.1% SDS; Fisher Scientific) supplemented with 1% phosphatase inhibitor (Fisher Scientific) and 1% protease inhibitor (Fisher Scientific) for 10 minutes. Samples were transferred to eppendorf tubes, vortexed and then centrifuged at 14 000 rpm for 10 minutes. Supernatants were collected as whole cell lysates. For mouse tumour tissues, each sample was place in a 35 mm culture dish with complete RIPA lysis buffer. […]
To begin, the protein content of the lysates was measured using the Bicinchoninic Acid (BCA) Protein Assay Kit (Pierce), which included a protein standard curve generated with bovine serum albumin. […] For certain immunoblots, bands of proteins of interest were scanned and band intensity ratios were determined by densitometric analysis (ImageJ). […] To assess whether cells are actively undergoing cell death, the activity of poly ADP ribose polymerase (PARP) (1:1000 CST) was also measured using the immunoblotting method.
Cell signalling was evaluated by immunoblotting. […]

[32] = MDA-MB-231, growth in soft agar (SA), read-out: MDA-MB-231 IC50 (SA)
[33] = MDA-MB-231 (TNBC), 14-22 days, read-out: IC50 Values - Soft Agar (14-22 Days)

With `C[C@@H]1CNC(=O)c2cc3ccc(C(=O)Nc4cnn(Cc5cccc(N)c5)c4)nc3n21` [Compound 16, (R)—N-(1-(3-aminobenzyl)-1H-pyrazol-4-yl)-9-methyl-6-oxo-6,7,8,9-tetrahydropyrido[3′,2′:4,5]pyrrolo[1,2-a]pyrazine-2-carboxamide] the IC50 (4T1 cells [1]) was 5.4 ± 0.9 µM, the IC50 (HCC1143 cells [2]) was 7 ± 3 µM and the IC50 (HCC1937 cells [3]) was 17.4 ± 3 µM. The IC50 (JIMT-1 cells [4]) was 16.3 ± 1 µM, the IC50 (MDA-MB-231 cells [5]) was 8.7 ± 1.8 µM and the IC50 (MDA-MB-435 cells [6]) was 0.9 ± 0.5 µM. The IC50 (MDA-MB-468 cells [7]) was 2.7 ± 0.5 µM, the IC50 (PC3 cells [8]) was 6.6 ± 2.3 µM and the IC50 (SUM149 cells [9]) was 3.4 ± 1.8 µM. The IC50 (SUM149-PTXR cells [10]) was 2.5 ± 0.4 µM, the IC50 (T47D cells [11]) was 4.7 ± 1.7 µM and the IC50 (All cell lines [12]) was 0.9 to 17.4 µM. For the same molecule, the IC50 (HCC1937 cells [13]) was 12 ± 5.3 µM, the IC50 (JIMT-1 cells [14]) was 13.3 ± 2.4 µM and the IC50 (MDA-MB-468 cells [15]) was 1.9 ± 0.3 µM. For the same molecule, the IC50 (T47D cells [16]) was 3.8 ± 0.7 µM, the IC50 (4T1 cells [17]) was 4.5 ± 0.8 µM and the IC50 (HCC1143 cells [18]) was 5 ± 1.1 µM. For the same molecule, the IC50 (MDA-MB-231 cells [19]) was 2.7 ± 1.3 µM, the IC50 (MDA-MB-435 cells [20]) was 1.2 ± 0.6 µM and the IC50 (PC3 cells [21]) was 3.7 ± 1.3 µM. It also gave an IC50 (SUM149 cells [22]) of 2.8 ± 0.9 µM, an IC50 (SUM149-PTXR cells [23]) of 3.5 ± 1.2 µM and an IC50 (All cell lines [24]) of 1.2 to 13.3 µM. For the same molecule, the IC50 (MDA-MB-231 cells [25]; [32]) was 0.2 µM, the IC50 (MDA-MB-231 cells [25]; [33]) was 0.2 ± 0.1 µM and the IC50 (MDA-MB-468 cells [26]) was 1.1 ± 0.3 µM. For the same molecule, the IC50 (4T1 cells [27]; 240 h, 4T1, 10 days, read-out: IC50 Values, 10 Days, Soft Agar) was 3.3 µM, the IC50 (4T1 cells [27]; 4T1 (TNBC), 14-22 days, read-out: IC50 Values - Soft Agar (14-22 Days)) was 3.5 ± 0.3 µM and the “CD274 (gene encoding PD-L1) levels” value (MDA-MB-231 cells [28]) was “reduced levels of CD274”. For the same molecule, the “HLA-DRA mRNA” value (MDA-MB-231 cells [28]) was “elevated levels of HLA-DRA mRNA”, the “mRNA expression of CIITA” value (MDA-MB-231 cells [28]) was “little effect” and the IC50 (CD34+ cells) was greater than 20 µM. For the same molecule, the “Therapeutic Window” value (CD34+ cells) was greater than 100X and the “Loss of P-YB-1” value [29] was “dose dependent loss of P-YB-1”.

In the case of `C[C@@H]1CNC(=O)c2cc3ccc(C(=O)Nc4cnn(Cc5ccc(N)cc5)c4)nc3n21` [Compound 25, (R)—N-(1-(4-aminobenzyl)-1H-pyrazol-4-yl)-9-methyl-6-oxo-6,7,8,9-tetrahydropyrido[3′,2′:4,5]pyrrolo[1,2-a]pyrazine-2-carboxamide hydrochloride salt], the “Solubility, 20 mg/ml Solution” value ([30]; 100 mM in DMSO diluted in DMEM growth media to 20 mg/ml) is reported as “Soluble; also recorded: superior solubility”, the “pH of 20 mg/ml solution” value ([30]; DMSO stock diluted in DMEM, pH test strips) is reported as 2 and the IC50 (HCC1143 cells [2]) is reported as 5.1 ± 0.3 µM. It also gave an IC50 (HCC1937 cells [3]) of 13.7 ± 3.8 µM, an IC50 (JIMT-1 cells [4]) of 19.9 ± 6.5 µM and an IC50 (MDA-MB-435 cells [6]) of 0.9 ± 0.1 µM. It also gave an IC50 (PC3 cells [8]) of 8.5 ± 0.8 µM, an IC50 (SUM149 cells [9]) of 10.4 ± 3.5 µM and an IC50 (SUM149-PTXR cells [10]) of 5.2 ± 4.2 µM. The IC50 (T47D cells [11]) was 8.9 ± 0.8 µM, the IC50 (HCC1937 cells [13]) was 8.4 ± 1.9 µM and the IC50 (JIMT-1 cells [14]) was 15.2 ± 2.6 µM. The IC50 (MDA-MB-468 cells [15]) was 2 ± 0.4 µM, the IC50 (T47D cells [16]) was 3.1 ± 0.1 µM and the IC50 (MDA-MB-231 cells [25]; [32]) was 0.2 µM. The IC50 (MDA-MB-231 cells [25]; [33]) was 0.2 ± 0.1 µM, the IC50 (CD34+ cells) was greater than 20 µM and the “Therapeutic Window” value (CD34+ cells; hydrochloride salt) was greater than 100X. For the same molecule, the “Tumors with reduced cell signaling through loss of P-YB-1” value [31] was 3/3.
